Key:
erectile dysfunction = assay: Intracavernosal injection in a patient with erectile dysfunction (Example 4); format: in vivo, human; conditions: person, along with phentolamine, alprostadil and papaverine
Protocol: A new injection was reformulated to contain the 3 vasoactive drugs mentioned above along with the addition of pentoxifylline, and was administered to the patient.

[1] = tested on: Peyronie's Disease plaques; conditions: oral administration; cited from earlier work
[2] = tested on: symptoms of PD, such as erectile dysfunction; assay: Intracavernosal injection of a composition comprising pentoxifylline (general finding); format: in vivo
Text: This disclosure relates to the finding that local administration of a xanthine derivative, e.g., pentoxifylline, has produced unexpected improvement in treating a fibrotic disease.

Peyronie's plaque = assay: Injection of pentoxifylline directly into the Peyronie's plaque of patients (Examples 5 and 6); format: in vivo, human; conditions: Peyronie's disease
Protocol: In Examples 5 and 6, patients suffering from Peyronie's disease were treated. A therapy cycle included injections of sterile pentoxifylline. More specifically, 6 separate injections were to be conducted over every two weeks. The dosage was 5 mg of pentoxifylline in a 1 ml volume. Single use vials were dispensed. The injections were made using a 21 gauge cannula directly into the Peyronie's plaque. A nerve block was done around the injection site to lessen the pain. Manual manipulation and traction techniques were employed to massage the area of the injection. Patients returned after two weeks for another injection and manual manipulation session.
Baseline measurements were collected before any treatment occurred to characterize the extent of the patient's disease. The degree of curvature was noted, as well as any pain/discomfort that the patient presently had and current sexual ability. Psychosocial effects related to the patient's disease were observed as well.
In Example 5, the patient suffering from Peyronie's disease was brought to the procedure room, prepared and draped in the usual sterile fashion.
A total of 1 mL of 1% lidocaine was used to perform a local block. Once the patient was anesthetized, the plaque was isolated between two fingers and 1 mL of 5 mg pentoxyfilline was injected into the plaque in a fan-like fashion. […]

## CC(=O)CCCCn1c(=O)c2c(ncn2C)n(C)c1=O [pentoxifylline, 1-(5-oxohexyl)-3,7-dimethylxanthine]
Erectile dysfunction; pentoxifylline 6 mg dose
  improvement of erectile dysfunction: more remarkable
Erectile dysfunction; pentoxifylline dose of 4 mg per injection
  improvement of erectile dysfunction: remarkable improvement
[1]
  improvement of Peyronie's disease: moderate to minimal improvement
[2]
  improvement to symptoms of PD, such as erectile dysfunction: remarkable improvement
  side effects: fewer side effects
Peyronie's plaque; Example 5 patient, 1 mL of 5 mg injected into the plaque after 1% lidocaine local block
  tolerability of the procedure: tolerated the procedure well
Peyronie's plaque; Example 6 patient, treated in the same fashion as Example 5 (5 mg in 1 ml into the plaque)
  tolerability of the procedure: tolerated the procedure well
